Experimental data as given in ChEMBL document CHEMBL1133572, “Protease inhibitors: current status and future prospects” (J Med Chem, 2000).
≈ marks a conversion by molar mass, not a printed value. Values belong to the compound of their own block, whether it stands above or below them. Residues, ends and D or L forms follow the SMILES beside them. *: point of attachment. Cbz = O=C(OCc1ccccc1)*; CHN2 = [N-]=[N+]=C*

What was measured:
Cathepsin B [1] = biological target: T1, Cathepsin B (Homo sapiens, UniProt P07858); assay: Inhibitory activity against cathepsin B (ip); type: organism-based
Cathepsin B [2] = biological target: T1, Cathepsin B; assay: Inhibitory activity against cathepsin B (po); type: organism-based
Cathepsin B [3] = biological target: T1, Cathepsin B; assay: Inhibitory activity against cathepsin B (sc); type: organism-based
Serine protease 1 [4] = biological target: T2, Serine protease 1 (Homo sapiens, UniProt P07477); assay: Inhibitory concentration against Trypsin
T2 sequence (P07477 whole entry): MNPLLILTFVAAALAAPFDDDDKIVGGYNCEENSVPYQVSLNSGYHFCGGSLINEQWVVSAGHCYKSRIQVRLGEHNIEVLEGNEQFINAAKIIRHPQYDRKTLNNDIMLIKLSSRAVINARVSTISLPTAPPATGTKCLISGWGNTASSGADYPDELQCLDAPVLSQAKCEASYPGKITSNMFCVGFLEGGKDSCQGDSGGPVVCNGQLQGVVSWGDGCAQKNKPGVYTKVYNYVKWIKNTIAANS

[5] = Inhibitory concentration against Chymotrypsinogen
[6] = Inhibitory concentration against Elastase
Plasminogen = Plasminogen (Rattus norvegicus, UniProt Q01177); assay: Inhibitory concentration against Plasmin
Chain of Plasminogen (Q01177 97-581 limits assumed): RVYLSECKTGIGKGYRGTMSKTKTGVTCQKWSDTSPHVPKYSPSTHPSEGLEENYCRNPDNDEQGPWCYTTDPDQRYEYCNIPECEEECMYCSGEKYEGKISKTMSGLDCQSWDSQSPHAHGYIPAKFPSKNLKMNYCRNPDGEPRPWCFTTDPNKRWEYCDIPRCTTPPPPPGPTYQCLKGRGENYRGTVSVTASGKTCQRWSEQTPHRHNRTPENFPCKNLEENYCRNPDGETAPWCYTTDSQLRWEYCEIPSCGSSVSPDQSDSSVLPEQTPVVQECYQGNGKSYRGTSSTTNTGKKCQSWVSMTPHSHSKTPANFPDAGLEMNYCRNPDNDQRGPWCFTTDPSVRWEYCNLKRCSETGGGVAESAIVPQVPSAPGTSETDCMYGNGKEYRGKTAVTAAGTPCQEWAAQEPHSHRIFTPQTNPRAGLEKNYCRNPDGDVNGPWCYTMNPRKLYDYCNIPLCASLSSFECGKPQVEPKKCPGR
Chain of Plasminogen (Q01177 582-812 limits assumed): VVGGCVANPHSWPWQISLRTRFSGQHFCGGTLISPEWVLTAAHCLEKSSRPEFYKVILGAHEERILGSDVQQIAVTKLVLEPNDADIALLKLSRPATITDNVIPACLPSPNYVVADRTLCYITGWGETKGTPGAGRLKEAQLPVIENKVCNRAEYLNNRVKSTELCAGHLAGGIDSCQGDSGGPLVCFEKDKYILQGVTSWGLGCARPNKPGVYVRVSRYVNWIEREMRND

Neprilysin = biological target: T3, Neprilysin (Rattus norvegicus, UniProt P07861)
T3 sequence (P07861 whole entry): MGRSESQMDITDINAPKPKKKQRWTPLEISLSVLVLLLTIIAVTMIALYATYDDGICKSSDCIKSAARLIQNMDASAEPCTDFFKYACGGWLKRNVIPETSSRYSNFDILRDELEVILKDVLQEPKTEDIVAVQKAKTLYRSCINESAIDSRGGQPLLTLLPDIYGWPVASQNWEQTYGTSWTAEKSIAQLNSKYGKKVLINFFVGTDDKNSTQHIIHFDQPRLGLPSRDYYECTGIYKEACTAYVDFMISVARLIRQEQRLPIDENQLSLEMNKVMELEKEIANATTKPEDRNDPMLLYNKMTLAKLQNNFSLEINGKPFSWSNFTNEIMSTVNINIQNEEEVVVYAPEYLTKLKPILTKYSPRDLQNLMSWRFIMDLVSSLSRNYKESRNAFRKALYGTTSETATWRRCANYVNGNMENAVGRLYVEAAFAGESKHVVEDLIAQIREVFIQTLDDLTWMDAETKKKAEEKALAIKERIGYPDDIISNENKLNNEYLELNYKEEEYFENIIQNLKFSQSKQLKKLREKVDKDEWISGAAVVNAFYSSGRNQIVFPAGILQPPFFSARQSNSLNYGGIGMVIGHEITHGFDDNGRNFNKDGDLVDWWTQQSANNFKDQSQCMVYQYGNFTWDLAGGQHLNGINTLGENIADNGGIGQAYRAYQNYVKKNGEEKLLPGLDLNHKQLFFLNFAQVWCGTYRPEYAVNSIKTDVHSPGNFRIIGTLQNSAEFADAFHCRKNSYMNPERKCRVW

[7] = biological target: T4, Angiotensin-converting enzyme (Homo sapiens, UniProt P12821)
T4 sequence (P12821 whole entry): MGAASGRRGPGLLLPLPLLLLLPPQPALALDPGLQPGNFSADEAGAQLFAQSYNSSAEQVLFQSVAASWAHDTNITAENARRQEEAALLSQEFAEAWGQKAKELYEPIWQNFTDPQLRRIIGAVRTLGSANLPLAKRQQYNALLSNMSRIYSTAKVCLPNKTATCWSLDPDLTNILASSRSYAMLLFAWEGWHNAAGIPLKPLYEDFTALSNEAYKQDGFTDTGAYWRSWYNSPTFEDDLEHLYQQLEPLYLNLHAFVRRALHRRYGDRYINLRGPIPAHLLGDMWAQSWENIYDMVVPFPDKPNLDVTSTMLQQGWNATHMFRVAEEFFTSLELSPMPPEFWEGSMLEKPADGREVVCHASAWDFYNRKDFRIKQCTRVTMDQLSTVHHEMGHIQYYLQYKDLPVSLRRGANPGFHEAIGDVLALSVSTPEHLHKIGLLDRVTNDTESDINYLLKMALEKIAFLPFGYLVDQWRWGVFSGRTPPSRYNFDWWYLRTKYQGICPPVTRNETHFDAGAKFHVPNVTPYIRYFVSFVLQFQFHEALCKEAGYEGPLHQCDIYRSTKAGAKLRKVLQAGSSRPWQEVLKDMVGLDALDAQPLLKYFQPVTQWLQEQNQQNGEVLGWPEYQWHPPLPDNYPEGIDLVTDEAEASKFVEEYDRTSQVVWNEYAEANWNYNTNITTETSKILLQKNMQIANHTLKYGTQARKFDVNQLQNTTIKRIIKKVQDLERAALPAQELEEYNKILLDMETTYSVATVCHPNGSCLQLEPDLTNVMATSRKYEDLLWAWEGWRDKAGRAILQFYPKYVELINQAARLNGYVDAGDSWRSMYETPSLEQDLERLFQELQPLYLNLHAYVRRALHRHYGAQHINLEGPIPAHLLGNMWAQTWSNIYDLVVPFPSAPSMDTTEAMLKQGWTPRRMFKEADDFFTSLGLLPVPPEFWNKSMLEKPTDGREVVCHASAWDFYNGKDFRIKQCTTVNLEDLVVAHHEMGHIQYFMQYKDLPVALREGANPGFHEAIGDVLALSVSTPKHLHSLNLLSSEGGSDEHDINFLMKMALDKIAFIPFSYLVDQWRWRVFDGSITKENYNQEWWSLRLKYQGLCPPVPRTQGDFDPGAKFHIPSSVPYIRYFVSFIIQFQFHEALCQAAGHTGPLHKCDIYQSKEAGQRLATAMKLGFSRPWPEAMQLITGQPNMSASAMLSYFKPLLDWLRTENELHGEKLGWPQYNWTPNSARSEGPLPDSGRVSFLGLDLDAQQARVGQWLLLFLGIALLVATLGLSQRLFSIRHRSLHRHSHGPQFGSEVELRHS

[8] = biological target: T5, Calpain-1 catalytic subunit (Homo sapiens, UniProt P07384); assay: The binding affinity against calpain.
T5 sequence (P07384 whole entry): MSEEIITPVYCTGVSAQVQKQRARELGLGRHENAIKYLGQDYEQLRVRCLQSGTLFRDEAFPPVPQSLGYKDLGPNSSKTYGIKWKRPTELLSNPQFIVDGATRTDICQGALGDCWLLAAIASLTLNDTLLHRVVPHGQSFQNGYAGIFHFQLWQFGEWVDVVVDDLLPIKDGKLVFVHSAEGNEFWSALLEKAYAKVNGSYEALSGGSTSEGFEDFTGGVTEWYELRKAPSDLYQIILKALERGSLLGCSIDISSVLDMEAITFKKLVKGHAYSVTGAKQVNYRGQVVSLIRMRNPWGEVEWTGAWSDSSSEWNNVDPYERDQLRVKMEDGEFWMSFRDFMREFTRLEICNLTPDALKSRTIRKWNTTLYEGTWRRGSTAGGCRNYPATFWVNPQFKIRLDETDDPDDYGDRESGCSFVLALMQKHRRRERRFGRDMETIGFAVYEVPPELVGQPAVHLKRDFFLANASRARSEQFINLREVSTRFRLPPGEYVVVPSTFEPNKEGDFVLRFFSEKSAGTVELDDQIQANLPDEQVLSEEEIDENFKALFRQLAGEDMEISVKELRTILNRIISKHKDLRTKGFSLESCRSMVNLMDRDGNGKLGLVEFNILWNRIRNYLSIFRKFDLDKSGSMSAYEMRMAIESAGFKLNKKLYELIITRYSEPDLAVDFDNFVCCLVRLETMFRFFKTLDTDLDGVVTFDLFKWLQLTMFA

Procathepsin L [9] = biological target: T6, Procathepsin L (Homo sapiens, UniProt P07711); assay: Inhibitory activity against cathepsin L, lysosomal cysteine protease
T6 sequence (P07711 whole entry): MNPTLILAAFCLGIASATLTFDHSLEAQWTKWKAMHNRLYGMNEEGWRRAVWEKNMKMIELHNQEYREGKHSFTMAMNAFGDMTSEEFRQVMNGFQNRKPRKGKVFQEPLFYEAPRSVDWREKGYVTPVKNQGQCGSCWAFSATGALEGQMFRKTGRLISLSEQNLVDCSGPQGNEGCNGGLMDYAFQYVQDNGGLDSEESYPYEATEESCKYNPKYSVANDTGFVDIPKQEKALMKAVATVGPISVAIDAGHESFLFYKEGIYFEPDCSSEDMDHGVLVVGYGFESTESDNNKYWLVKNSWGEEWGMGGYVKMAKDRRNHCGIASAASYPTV

Tryptase = Tryptase (Homo sapiens, UniProt Q9BZJ3+Q15661+Q9NRR2); assay: Binding affinity against Tryptase.; type: protein assay
Coagulation factor X = Coagulation factor X (Homo sapiens, UniProt P00742)
Chain of Coagulation factor X (P00742 41-179 limits assumed): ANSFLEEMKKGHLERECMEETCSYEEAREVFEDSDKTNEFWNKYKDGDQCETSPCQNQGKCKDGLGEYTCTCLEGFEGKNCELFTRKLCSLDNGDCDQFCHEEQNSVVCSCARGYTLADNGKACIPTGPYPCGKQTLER
Chain of Coagulation factor X (P00742 235-488 limits assumed): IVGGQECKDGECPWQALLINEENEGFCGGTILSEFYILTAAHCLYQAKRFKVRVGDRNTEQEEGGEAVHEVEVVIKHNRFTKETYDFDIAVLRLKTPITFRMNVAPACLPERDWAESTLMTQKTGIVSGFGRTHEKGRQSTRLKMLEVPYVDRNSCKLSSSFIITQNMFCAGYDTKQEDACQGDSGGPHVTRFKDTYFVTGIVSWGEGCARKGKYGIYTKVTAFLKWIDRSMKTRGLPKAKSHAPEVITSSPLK

Cathepsin S = Cathepsin S (Homo sapiens, UniProt P25774); assay: The apparent binding affinity against cathepsin S.; conditions: read-out: Ki app
Chain of Cathepsin S (P25774 whole entry): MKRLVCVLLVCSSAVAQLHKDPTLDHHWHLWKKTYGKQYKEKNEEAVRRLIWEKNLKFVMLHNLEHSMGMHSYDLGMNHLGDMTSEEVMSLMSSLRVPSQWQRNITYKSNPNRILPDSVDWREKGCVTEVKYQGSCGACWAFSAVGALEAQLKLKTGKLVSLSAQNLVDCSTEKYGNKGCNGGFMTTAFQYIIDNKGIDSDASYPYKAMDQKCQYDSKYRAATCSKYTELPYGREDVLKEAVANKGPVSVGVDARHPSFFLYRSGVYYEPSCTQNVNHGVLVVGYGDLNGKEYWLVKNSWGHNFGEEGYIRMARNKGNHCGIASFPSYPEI

Cathepsin B [10] = biological target: T1, Cathepsin B
Cathepsin K = Cathepsin K (Homo sapiens, UniProt P43235); assay: The apparent binding affinity against cathepsin K.; conditions: read-out: Ki app
Chain of Cathepsin K (P43235 whole entry): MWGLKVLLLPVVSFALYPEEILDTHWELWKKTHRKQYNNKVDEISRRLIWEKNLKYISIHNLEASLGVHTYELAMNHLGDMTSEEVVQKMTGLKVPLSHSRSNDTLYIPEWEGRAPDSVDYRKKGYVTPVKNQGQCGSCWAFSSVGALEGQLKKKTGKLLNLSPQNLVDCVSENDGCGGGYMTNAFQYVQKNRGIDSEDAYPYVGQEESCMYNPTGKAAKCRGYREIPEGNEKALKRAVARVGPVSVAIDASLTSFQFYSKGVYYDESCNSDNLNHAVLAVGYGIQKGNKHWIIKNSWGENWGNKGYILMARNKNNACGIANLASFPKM

Procathepsin L [11] = biological target: T6, Procathepsin L
[12] = The irreversible inhibitor activity by second order rate equation.; type: ADME
Caspase-1 = biological target: T7, Caspase-1 (Homo sapiens, UniProt P29466)
T7 sequence (P29466 whole entry): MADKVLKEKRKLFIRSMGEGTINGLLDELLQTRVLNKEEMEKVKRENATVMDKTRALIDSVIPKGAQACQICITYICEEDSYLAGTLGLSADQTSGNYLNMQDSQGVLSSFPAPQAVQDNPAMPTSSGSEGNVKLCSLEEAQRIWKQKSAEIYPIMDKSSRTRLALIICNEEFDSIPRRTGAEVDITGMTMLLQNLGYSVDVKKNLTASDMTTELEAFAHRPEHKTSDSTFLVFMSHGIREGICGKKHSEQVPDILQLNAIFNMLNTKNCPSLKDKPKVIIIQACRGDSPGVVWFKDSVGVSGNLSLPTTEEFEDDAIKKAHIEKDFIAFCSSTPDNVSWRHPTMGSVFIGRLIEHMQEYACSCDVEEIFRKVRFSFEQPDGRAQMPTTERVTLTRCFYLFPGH

[13] = biological target: T4, Angiotensin-converting enzyme; assay: oral activity against angiotensin -converting enzyme ( ACE) and neutral endopeptidase in mouse.
Serine protease 1 [14] = biological target: T2, Serine protease 1

ED50 (Cathepsin B [1]): 5 mg/kg
ED50 (Cathepsin B [2]): 18 mg/kg
ED50 (Cathepsin B [3]): 2.4 mg/kg
Structure (SMILES): Cc1cc(C)c(C(=O)OCC(=O)[C@H](CCCCN)NC(=O)[C@H](Cc2ccccc2)NC(=O)OCc2ccccc2)c(C)c1

IC50 (Serine protease 1 [4]): 36500 nM
IC50 [5]: 10.8 µg/mL (≈ 31.3 µM)
IC50 [6]: 21.6 µg/mL (≈ 62.5 µM)
IC50 (Plasminogen): > 145000 nM
Structure (SMILES): CC(/C=C/C=C/c1ccccc1)=C1/SC(=S)N(CC(=O)O)C1=O

IC50 (Neprilysin): 8 nM
IC50 [7]: 5 nM
Structure (SMILES): O=C(NC1CCC[C@H]2CCC[C@@H](C(=O)O)N2C1=O)[C@@H](S)Cc1ccccc1 (stereo partly specified)

Ki [8]: 41000 nM
Structure (SMILES): CC[C@H](NC(=O)[C@H](CC(C)C)NC(=O)OCc1ccccc1)C(=O)C(=O)NCCCN1CCOCC1

IC50 (Procathepsin L [9]): 50 nM
Structure (SMILES): [N-]=[N+]=CC(=O)[C@H](Cc1ccccc1)NC(=O)[C@H](Cc1ccccc1)NC(=O)OCc1ccccc1 (Cbz-Phe-Phe-CHN2)

Ki (Tryptase): 840 nM
Structure (SMILES): N=C(N)NCCC[C@H](NC(=O)c1ccc2ccccc2c1O)C(=O)N1CCC[C@H]1C(N)=O

IC50 (Neprilysin): 11 nM
IC50 [7]: > 10000 nM
Structure (SMILES): O=C(O)C(CCc1ccccc1)N[C@@H](Cc1ccccc1)C(=O)NC[C@H](O)C(=O)O (stereo partly specified)

IC50 (Coagulation factor X): 270 nM
Structure (SMILES): N=C(N)c1cccc(-c2cccc([C@H](CCCNc3ccncc3)C(=O)O)c2)c1

Ki (Cathepsin S): 910 nM
Ki (Cathepsin B [10]): > 10000 nM
Ki (Cathepsin K): 1.4 nM
Ki (Procathepsin L [11]): > 1000 nM
Structure (SMILES): CC(C)C[C@H](C(=O)NCC(=O)CNS(=O)(=O)c1ccc(Oc2ccccc2)cc1)c1cccc(-c2ccccc2)c1

IC50 (Neprilysin): 28 nM
Structure (SMILES): COCCOCC(CC1(C(=O)N[C@H]2CC[C@@H](C(=O)O)CC2)CCCC1)C(=O)Oc1ccc2c(c1)CCC2 (stereo partly specified)

K second [12]: 8.7 M⁻¹ s⁻¹
Structure (SMILES): CC(C)C[C@H](NC(=O)[C@H]1O[C@@H]1C(=O)O)C(=O)N1CCC[C@H]1C(=O)OCc1ccccc1

IC50 (Serine protease 1 [4]): 39900 nM
IC50 [5]: 15.6 µg/mL (≈ 34 µM)
IC50 [6]: > 50 µg/mL
IC50 (Plasminogen): > 109000 nM
Structure (SMILES): CC(=O)OCCC/C(=C1/SC(=S)N(CC(=O)O)C1=O)c1ccc(Br)cc1

IC50 [7]: 1.7 nM
Structure (SMILES): CCOC(=O)[C@H](CCc1ccccc1)N[C@H]1CCc2ccccc2N(CC(=O)O)C1=O [BENAZEPRIL]

IC50 (Caspase-1): 10400 nM
Structure (SMILES): CC(=O)N[C@@H](CC(=O)O)C(=O)N[C@H]1CCC[C@H]2SC[C@@H](C(=O)N[C@H]3CC(=O)OC3O)N2C1=O (stereo partly specified)

ED50 [13]: 0.5 mg/kg
Structure (SMILES): CC(=O)SC[C@@H](Cc1ccc2c(c1)OCO2)C(=O)N[C@@H](C)C(=O)OCc1ccccc1

IC50 [7]: 0.4 nM
Structure (SMILES): C[C@H](CSC(=O)c1ccccc1)C(=O)N1C[C@@H](Sc2ccccc2)C[C@H]1C(=O)O [ZOFENOPRIL]

Ki (Tryptase): 0.6 nM
Ki (Serine protease 1 [14]): 84000 nM
Structure (SMILES): NCc1ccc(CNC(=O)CNC(=O)OCc2ccc(COC(=O)NCC(=O)NCc3ccc(CN)cc3)cc2)cc1
